Experimental findings from patent US9981928B2, “Aryl sulfide derivatives and aryl sulfoxide derivatives as acaricides and insecticides” (BAYER CROPSCIENCE AKTIENGESELLSCHAFT, priority 2013, dated 2018) are described below.

Read-outs that look alike come from different tables or passages of the source.

The nature of this series: log P determination by HPLC on reversed-phase columns (C 18), analogously to OECD Guideline 117. Format: physicochemical. As to conditions: for logP (HCOOH): LC-MS in the acidic range, pH 2.7, 0.1% aqueous formic acid / acetonitrile; for logP (HCOOH) / logP (neutral): HPLC reversed-phase C 18; for logP (neutral): LC-MS in the neutral range, pH 7.8, 0.001 molar aqueous ammonium hydrogencarbonate / acetonitrile. The protocol:
The log P values were determined analogously to OECD Guideline 117 (EC Directive 92/69/EEC) by HPLC (high-performance liquid chromatography) using reversed-phase columns (C 18), by the following methods:
[a] The LC-MS determination in the acidic range was effected at pH 2.7 with 0.1% aqueous formic acid and acetonitrile (contains 0.1% formic acid) as eluents; linear gradient from 10% acetonitrile to 95% acetonitrile. log P^[a] is also referred to as log P(HCOOH). [b] LC-MS determination in the neutral range was effected at pH 7.8 with 0.001 molar aqueous ammonium hydrogencarbonate solution and acetonitrile as eluents; linear gradient from 10% acetonitrile to 95% acetonitrile. log P^[…] is also referred to as log P(neutral).

Setting [1] is: reversed-phase C18 HPLC column, acidic range, pH 2.7, 0.1% aqueous formic acid and acetonitrile, read-out: log P[a] / log P(HCOOH).
[2] abbreviates: reversed-phase C18 HPLC column, neutral range, pH 7.8, 0.001 molar aqueous ammonium hydrogencarbonate and acetonitrile, read-out: log P[b] / log P(neutral).
The mark [3] stands for this setting: acidic range, pH 2.7, 0.1% aqueous formic acid and acetonitrile, read-out: log P[a] / log P(HCOOH).

For `Cc1cc(F)c(N2C(=O)C(=O)N(C3CC3)C2=O)cc1SCC(F)(F)F` [Example 102], the “logP (HCOOH)” value amounted to 3.24. For `O=c1[nH]n(Cc2ccccc2)c(=O)n1C1CC1` [drawing 120 R1=benzyl R10=cyclopropyl, 1-benzyl-4-cyclopropyl-1,2,4-triazolidine-3,5-dione], under setting [1], the chromatographic logP is 1.21. The same measure, in the same setting: under `Cc1cc(F)c(N2C(=O)N(C)C(=O)C2(C)C)cc1[S+]([O-])CC(F)(F)F` (stereo not drawn) [Example 216, 1-[2-Fluoro-4-methyl-5-(2,2,2-trifluoroethylsulfinyl)phenyl]-3,5,5-trimethylimidazolidine-2,4-dione] stands 2.05. `Cc1cc(F)c(-n2c(=O)n(C(C)(C)C)c(=O)n2C)cc1[S+]([O-])CC(F)(F)F` (stereo not drawn) [Example 95]: the “logP (HCOOH)” value was 2.69 and the “logP (neutral)” value turned out to be 2.65. With `Cc1cc(F)c(-n2c(=O)n(C)c(=O)n2C2CCCC2)cc1SCC(F)(F)F` [Example 86], the “logP (HCOOH)” value amounted to 3.75 and the “logP (neutral)” value is on record as 3.67. Taken in the same sequence, the figures for `CCC(C)n1c(=O)n(C2CC2)c(=O)n1-c1cc([S+]([O-])CC(F)(F)F)c(C)cc1F` (stereo not drawn) [Example 75] were 2.73 and 2.68. Take `CC(C)n1[nH]c(=O)n(C)c1=O` [drawing 120 R1=CH(CH3)2 R10=CH3, 1-isopropyl-4-methyl-1,2,4-triazolidine-3,5-dione]: under setting [1], the chromatographic logP turned out to be 0.12. Regarding `CCC(C)n1c(=O)n(C2CC2)c(=O)n1-c1cc(SCC(F)(F)F)c(C)cc1F` (stereo not drawn) [Example 73], the “logP (HCOOH)” value stood at 3.86 and the “logP (neutral)” value was 3.72. Turning to `CCn1c(=O)n(-c2cc([S+]([O-])CC(F)(F)F)c(C)cc2F)c(=O)n1CC` (stereo not drawn) [Example 119, 1,2-Diethyl-4-{2-fluoro-4-methyl-5-[(2,2,2-trifluoroethyl)sulfinyl]phenyl}-1,2,4-triazolidine-3,5-dione], under setting [1], the chromatographic logP is 2.07. With `Cc1cc(F)c(-n2[nH]c(=O)n(-c3cccc(C(F)(F)F)c3)c2=O)cc1[S+]([O-])CC(F)(F)F` (racemic) [Example 158], the “logP (HCOOH)” value was 2.69 and the “logP (neutral)” value came to 1.10.

For the molecule `C=CCOc1n[nH]c(=O)n1C1CC1` [drawing 121 R1=CH2CH═CH2 R10=cyclopropyl, 5-(allyloxy)-4-cyclopropyl-2,4-dihydro-3H-1,2,4-triazol-3-one], the chromatographic logP is 1 under setting [1] and 1.03 under setting [2]. Taken in the same sequence, the figures for `Fc1cc(Cl)c(SCC(F)(F)F)cc1Br` [VIIa-2, 1-Bromo-4-chloro-2-fluoro-5-[(2,2,2-trifluoroethyl)sulfanyl]benzene] were 4.28 and 4.29.

In the case of `Fc1cc(Br)c(SCC(F)(F)F)cc1Br` [VIIa-14, 1,4-Dibromo-2-fluoro-5-[(2,2,2-trifluoroethyl)sulfanyl]benzene], the chromatographic logP under setting [1] was 4.39 and the chromatographic logP under setting [2] was 4.36.

Turning to `CCn1[nH]c(=O)n(CC)c1=O` [1,4-Diethyl-1,2,4-triazolidine-3,5-dione], under setting [1], the chromatographic logP was 0.14.

On to `Cc1cc(F)c(-n2c(=O)n(C(C)C)c(=O)n2CC(C)C)cc1SCC(F)(F)F` [Example 149], for which the “logP (HCOOH)” value was 4.27 and the “logP (neutral)” value was 4.21. With `CC1(C)OB(c2ccc(Cl)c(SCC(F)(F)F)c2)OC1(C)C` [2-{4-Chloro-3-[(2,2,2-trifluoroethyl)sulfanyl]phenyl}-4,4,5,5-tetramethyl-1,3,2-dioxaborolane], the chromatographic logP came out at 5.27 under setting [1] and 5.16 under setting [2]. Regarding `C=CCOC(=O)Nc1cc(SCC(F)(F)F)c(C)cc1F` [Allyl N-[2-fluoro-4-methyl-5-(2,2,2-trifluoroethylsulfanyl)phenyl]carbamate], the chromatographic logP under setting [3] stood at 3.59. Turning to `CCn1[nH]c(=O)n(C(C)(C)C)c1=O` [drawing 120 R1=CH2CH3 R10=C(CH3)3, 4-tert-butyl-1-ethyl-1,2,4-triazolidine-3,5-dione], the chromatographic logP under setting [1] worked out at 1.15. Regarding `CC1(C)OB(c2cc(SCC(F)(F)F)c(Cl)cc2Cl)OC1(C)C` [2-{2,4-Dichloro-5-[(2,2,2-trifluoroethyl)sulfanyl]phenyl}-4,4,5,5-tetramethyl-1,3,2-dioxaborolane], the chromatographic logP was found to be 5.68 under setting [1] and 5.31 under setting [2]. Turning to `CCn1[nH]c(=O)n(-c2ccccc2)c1=O` [1-Ethyl-4-phenyl-1,2,4-triazolidine-3,5-dione], under setting [1], the chromatographic logP was 0.91. Consider `Cc1cc(C)c(B2OC(C)(C)C(C)(C)O2)cc1SCC(F)(F)F` [2-{2,4-Dimethyl-5-[(2,2,2-trifluoroethyl)sulfanyl]phenyl}-4,4,5,5-tetramethyl-1,3,2-dioxaborolane], for which the chromatographic logP under setting [1] came to 5.75 and the chromatographic logP under setting [2] is 5.64. In the case of `Cc1cc(F)c(-n2c(=O)n(C3CC3)c(=O)n2C)cc1[S+]([O-])CC(F)(F)F` (single isomer, unassigned) [Example 197], the “logP (HCOOH)” value came to 1.97 and the “logP (neutral)” value is 1.89. Taken in the same sequence, the figures for `Cc1cc(F)c(-n2c(=O)n(C(C)C)c(=O)n2C(C)(C)C)cc1[S+]([O-])CC(F)(F)F` (racemic) [Example 152] were 3.40 and 3.35.

As to `Cn1c(=O)n(C2CC2)c(=O)n1-c1cc(SCC(F)(F)F)c(F)cc1F` [Example 71], the “logP (HCOOH)” value is on record as 2.67 and the “logP (neutral)” value is recorded as 2.62. For the molecule `Cn1c(OCc2ccccc2Cl)n[nH]c1=O` [drawing 121 R1=2-chlorobenzyl R10=CH3, 5-[(2-chlorobenzyl)oxy]-4-methyl-2,4-dihydro-3H-1,2,4-triazol-3-one], the chromatographic logP is, setting by setting: under setting [1], 1.66; under setting [2], 1.63. Take `CC(C)Cn1[nH]c(=O)n(C2CC2)c1=O` [drawing 120 R1=CH2CH(CH3)2 R10=cyclopropyl, 4-cyclopropyl-1-isobutyl-1,2,4-triazolidine-3,5-dione]: the chromatographic logP under setting [1] came to 0.94. For the molecule `Cc1cc(F)c(-n2c(=O)n(C)c(=O)n2-c2cc(F)c(C#N)cc2F)cc1SCC(F)(F)F` [Example 78], the “logP (HCOOH)” value is 3.40 and the “logP (neutral)” value came out at 3.29.

As to `COc1ccc(B2OC(C)(C)C(C)(C)O2)cc1SCC(F)(F)F` [2-{4-Methoxy-3-[(2,2,2-trifluoroethyl)sulfanyl]phenyl}-4,4,5,5-tetramethyl-1,3,2-dioxaborolane], the chromatographic logP by setting is: under setting [1], 4.54; under setting [2], 4.46. In the case of `Cc1cc(C)c([S+]([O-])CC(F)(F)F)cc1B(O)O` (stereo not drawn) [VIIIb-11, {2,4-Dimethyl-5-[(2,2,2-trifluoroethyl)sulfinyl]phenyl}boronic acid], the chromatographic logP turned out to be 1.61 under setting [1] and 1.61 under setting [2].

`Cc1cc(F)c(N2C(=O)C(=O)N(CC(F)F)C2=O)cc1[S+]([O-])CC(F)(F)F` (stereo not drawn) [Example 103, 1-(2,2-Difluoroethyl)-3-{2-fluoro-4-methyl-5-[(2,2,2-trifluoroethyl)sulfinyl]phenyl}imidazolidine-2,4,5-trione]: the chromatographic logP is 2.32 under setting [1] and 0.87 under setting [2]. With `Cc1cc(F)c(NC(=O)C(C)(C)O)cc1SCC(F)(F)F` [N-[2-Fluoro-4-methyl-5-(2,2,2-trifluoroethylsulfanyl)phenyl]-2-hydroxy-2-methylpropanamide], the chromatographic logP under setting [1] turned out to be 2.81. Consider `Cc1cc(F)c(-n2c(=O)[nH][nH]c2=O)cc1SCC(F)(F)F` [4-{2-Fluoro-4-methyl-5-[(2,2,2-trifluoroethyl)sulfanyl]phenyl}-1,2,4-triazolidine-3,5-dione], for which the chromatographic logP under setting [1] turned out to be 1.82. Consider `Cc1cc(F)c(-n2c(=O)n(C3CC3)c(=O)n2C)cc1SCC(F)(F)F` [Example 128], for which the “logP (HCOOH)” value worked out at 3.49 and the “logP (neutral)” value worked out at 3.45. Take `COc1ccc(B(O)O)cc1[S+]([O-])CC(F)(F)F` (stereo not drawn) [VIIIb-8]: the chromatographic logP came to 1.36 under setting [1] and 1.37 under setting [2]. In the same order, the values of `Cc1cc(C)c(B(O)O)cc1SCC(F)(F)F` [VIIIa-11, {2,4-Dimethyl-5-[(2,2,2-trifluoroethyl)sulfanyl]phenyl}boronic acid] are 2.58 and 2.57.

As to `Cc1cc(F)c(N2C(=O)OCC2C)cc1[S+]([O-])CC(F)(F)F` (stereo not drawn) [Example 107, 3-[2-Fluoro-4-methyl-5-(2,2,2-trifluoroethylsulfinyl)phenyl]-4-methyloxazolidin-2-one], under setting [1], the chromatographic logP was 1.79. Consider `Cc1cc(F)c(NC(=O)OCCCl)cc1SCC(F)(F)F` [2-Chloroethyl N-[2-fluoro-4-methyl-5-(2,2,2-trifluoroethylsulfanyl)phenyl]carbamate], for which the chromatographic logP under setting [3] was found to be 3.45. On to `CC(C)n1[nH]c(=O)n(C2CC2)c1=O` [drawing 120 R1=CH(CH3)2 R10=cyclopropyl, 4-cyclopropyl-1-isopropyl-1,2,4-triazolidine-3,5-dione], for which the chromatographic logP under setting [1] is 0.5. For `CCOC(=O)NNC(=O)Nc1cc(SCC(F)(F)F)c(C)cc1F` [Ethyl 2-({2-fluoro-4-methyl-5-[(2,2,2-trifluoroethyl)sulfanyl]phenyl}carbamoyl)hydrazinecarboxylate], the chromatographic logP under setting [3] stood at 2.41. Turning to `CC(C)n1c(=O)[nH]n(C)c1=O` [drawing 120 R1=CH3 R10=CH(CH3)2, 4-isopropyl-1-methyl-1,2,4-triazolidine-3,5-dione], the chromatographic logP under setting [1] was found to be 0.27.
